According to patent US11529319B2, “Methods and compositions for treating neurological conditions” (priority 2017, dated 2022):
“Also recorded” adds a separate entry of the source.

Experiments:
Mef2c-het mice [1] = assay: Motor behavioral tests and paw clasping; format: in vivo, mouse; conditions: 3-month treatment
Description: (§1) Mef2c heterozygous knockout (Mef2c-het) mice were created by crossing mice carrying the conventional exon 2-deleted allele of Mef2c (Mef2c^Δ2) with their WT littermates. All procedures for maintaining and using these mice were approved by the Institutional Animal Care and Use Committee (IACUC) at the Sanford Burnham Prebys Medical Discovery Institute. In this study, only male mice were used for the behavioral assays to insure uniformity (either with or without drug treatment). Chronic treatment with memantine, NitroSynapsin (both at 4.6 μmol/kg body weight) or vehicle (PBS) was administered via i.p. injection, twice a day for at least 3 months, starting at ˜2.5 weeks of age. […]
Balance was measured by the latency to fall off the elevated (40 cm) horizontal rod (50 cm long) in four 20 sec trials. […] Traction capacity was measured over three 5 s trials as the ability of the animal to raise the hind limbs while remaining suspended by the forepaws grasped around an elevated horizontal bar (2 mm diameter). […] Muscle Strength was determined by one trial of 60 s in which the mice were placed in the middle of the horizontal bar in an upside-down position and the latency until falling down was measured. […] The latency to turn downward and the total time to descend to the floor over 3 trials was recorded.

Mef2c-het mice [2] = conditions: mouse, in vivo
Description: as §1, with “age. This age was chosen because mice are still juveniles and thus treatment could begin in human at an equivalent stage.” for “age.”
For extracellular field recordings, concentric, bipolar tungsten electrodes were used to activate Schaffer collateral/commissural (SC) fibers in the hippocampal CA1 region. […] For baseline recordings, slices were stimulated at 0.033 Hz for 20 min at stimulation intensities of 30-40% of those used to elicit the largest measured fEPSP amplitude. […] Data were sampled at 5 kHz and analyzed using the Clampfit 10 program (Molecular Devices).
Synaptic activity was recorded from dentate gyrus (DG) granule neurons using the whole-cell voltage-clamp technique. […]

Mef2c-het mice [3] = assay: Morris water maze (spatial learning and memory); format: in vivo, mouse
Description: (§2) Mef2c heterozygous knockout (Mef2c-het) mice were created by crossing mice carrying the conventional exon 2-deleted allele of Mef2c (Mef2c^Δ2) with their WT littermates. All procedures for maintaining and using these mice were approved by the Institutional Animal Care and Use Committee (IACUC) at the Sanford Burnham Prebys Medical Discovery Institute. In this study, only male mice were used for the behavioral assays to insure uniformity (either with or without drug treatment). Chronic treatment with memantine, NitroSynapsin (both at 4.6 μmol/kg body weight) or vehicle (PBS) was administered via i.p. injection, twice a day for at least 3 months, starting at ˜2.5 weeks of age. This age was chosen because mice are still juveniles and thus treatment could begin in human at an equivalent stage.
We tested spatial reference learning and memory using a version of the conventional Morris water maze. The mice were trained to swim to a platform 14 cm in diameter and submerged 1.5 cm beneath the surface of the water. The platform was invisible to the mice while swimming. […] Mice were given 4 trials a day for as many days as necessary to reach the criterion (<20 s mean escape latency). Retention of spatial training was assessed 24 h after the last training trial. Both probe trials consisted of a 60-s free swim in the pool without the platform. The ANY-maze video tracking system (Stoelting Co.) was used to videotape all trials for automated analysis.

Mef2c-het mice [4] = assay: Three-chamber social interaction test; format: in vivo, mouse
Description: as §2
This test was originally developed by the Crawley group for an animal model of autism. Autistic individuals show aberrant reciprocal social interaction, including low levels of social approach and unusual modes of interaction. A social interaction apparatus consisting of a rectangular, three chambered Plexiglas box, with each chamber measuring 20 cm (length)×40.5 cm (width)×22 cm (height) was used. Walls dividing the chamber were clear with small semicircular openings (3.5 cm radius), allowing access into each chamber. The middle chamber was empty and the two outer chambers contained small, round wire cages (Galaxy Cup, Spectrum Diversified Designs, Inc., Streetsboro, Ohio). The mice were habituated to the entire apparatus for 5 min. To assess social interaction, mice were returned to the middle chamber, this time with a stranger mouse (C57BL/6J of the same sex tethered to the wire cage). Time spent in the chamber with the stranger mouse and time spent in the empty wire cage-containing chamber were each recorded for 5 min, as was the number of entries into each chamber. Experimental mice were tested once, and the stranger C57BL/6J mice were used for up to 6 tests.

Structure (SMILES): CCC12CC3(N)CC(CC)(C1)CC(O[N+](=O)[O-])(C3)C2 [NitroSynapsin]
- paw clasping (Mef2c-het mice [1]): did not improve the paw clasping phenotype; also recorded: not rescued
- effect on EPSCs in WT mice (Mef2c-het mice [2]): no effects
- effect on LTP in WT mice (Mef2c-het mice [2]): no effects
- latency of finding hidden platform during training sessions (Mef2c-het mice [3]; Mef2c-het mice, 4.6 μmol/kg i.p. twice a day, 3 months): improved performance relative to vehicle
- probe test, time in target vs opposite quadrant (memory retention) (Mef2c-het mice [3]; Mef2c-het mice, 4.6 μmol/kg i.p. twice a day, 3 months, 24 h after last training): normalized memory function; also recorded: rescued this effect
- effect on Morris water maze in WT mice (Mef2c-het mice [3]; WT mice, 3-month treatment): no effects
- social ability: time in chambers, number and duration of visits (Mef2c-het mice [4]; Mef2c-het mice, chronic treatment): improved this abnormal social behavior; also recorded: rescued aberrant social ability
- number of social visits (S1 minus E), NitroSynapsin vs equimolar memantine (Mef2c-het mice [4]; Mef2c-het mice, head-to-head comparison): demonstrated the superiority of NitroSynapsin; also recorded: significantly greater than that of memantine (M)-treated mice
- social behavior of WT mice (Mef2c-het mice [4]; WT mice, 3-month treatment): did not significantly alter the social behavior of WT mice
